In PubChem BioAssay (NCI):
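1) Cells in 96-well plates. 2) Compound, 48 h, 5 concentrations. 3) Linear interpolation between surrounding doses. 4) Unreached endpoint = highest concentration. The concentration for 50% growth inhibition is given as GI50. TGI is the concentration that stops growth completely.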

How the values were obtained:
Test in all cases: NCI-60 cell line screen, 48 h
[1] = test system: PC-3 prostate
[2] = test system: RPMI-8226 leukemia
[3] = test system: M14 melanoma
[4] = test system: NCI-H226 lung
[5] = test system: A549 NSCLC
[6] = test system: NCI-H522 lung
[7] = test system: DU-145 prostate
[8] = test system: BT-549 breast
[9] = test system: UACC-62 melanoma
[10] = test system: U251 CNS
[11] = test system: HS 578T breast
[12] = test system: SK-OV-3 ovarian
[13] = test system: MDA-MB-231 breast
[14] = test system: NCI-H460 lung
[15] = test system: SF-295 CNS
[16] = test system: RXF 393 renal
[17] = test system: HCT-116 colon
[18] = test system: SK-MEL-2 melanoma
[19] = test system: SW-620 colon
[20] = test system: OVCAR-3 ovarian
[21] = test system: HCT-15 colon
[22] = test system: HOP-92 NSCLC
[23] = test system: MCF7 breast
[24] = test system: SR leukemia
[25] = test system: SN12C renal
[26] = test system: OVCAR-4 ovarian
[27] = test system: NCI/ADR-RES ovarian
[28] = test system: OVCAR-5 ovarian
[29] = test system: ACHN renal
[30] = test system: CAKI-1 renal
[31] = test system: HL-60(TB) leukemia
[32] = test system: T-47D breast
[33] = test system: A498 renal
[34] = test system: OVCAR-8 ovarian
[35] = test system: LOX IMVI melanoma
[36] = test system: UO-31 renal
[37] = test system: MDA-MB-435
[38] = test system: MOLT-4 leukemia
[39] = test system: IGROV1 ovarian
[40] = test system: SNB-75 CNS
[41] = test system: SF-539 CNS
[42] = test system: CCRF-CEM leukemia
[43] = test system: HT29 colon
[44] = test system: SK-MEL-28 melanoma
[45] = test system: SF-268 CNS
[46] = test system: HOP-62 NSCLC
[47] = test system: COLO 205 colon
[48] = test system: KM12 colon
[49] = test system: 786-0 renal
[50] = test system: MALME-3M melanoma
[51] = test system: UACC-257 melanoma
[52] = test system: HCC-2998 colon
[53] = test system: TK-10 renal
[54] = test system: SK-MEL-5 melanoma
[55] = test system: K-562 leukemia
[56] = test system: NCI-H23 lung
[57] = test system: SNB-19 CNS

SMILES: COC(=O)C(C(=O)OC)C(Br)C(Br)C(Br)c1ccccc1 (stereo not given)
- GI50 [1]: 11.5 µM
- TGI [1]: 24.6 µM
- GI50 [2]: 2.68 µM
- TGI [2]: 7.8 µM
- GI50 [3]: 12.9 µM
- TGI [3]: 27.5 µM
- GI50 [4]: 15.1 µM
- TGI [4]: 29.5 µM
- GI50 [5]: 16.8 µM
- TGI [5]: 32.6 µM
- GI50 [6]: 1.69 µM
- TGI [6]: 3.33 µM
- GI50 [7]: 10.6 µM
- TGI [7]: 23 µM
- GI50 [8]: 14.4 µM
- TGI [8]: 27.9 µM
- GI50 [9]: 9.46 µM
- TGI [9]: 21.5 µM
- GI50 [10]: 14.8 µM
- TGI [10]: 28 µM
- GI50 [11]: 18.4 µM
- TGI [11]: 62.8 µM
- GI50 [12]: 23.6 µM
- TGI [12]: 72.3 µM
- GI50 [13]: 13.2 µM
- TGI [13]: 26.8 µM
- GI50 [14]: 19.9 µM
- TGI [14]: 37.2 µM
- GI50 [15]: 18.9 µM
- TGI [15]: 37.3 µM
- GI50 [16]: 4.17 µM
- TGI [16]: 15.9 µM
- GI50 [17]: 2 µM
- TGI [17]: 3.82 µM
- GI50 [18]: 5.92 µM
- TGI [18]: 19.2 µM
- GI50 [19]: 3.29 µM
- TGI [19]: 11.4 µM
- GI50 [20]: 2.98 µM
- TGI [20]: 7.63 µM
- GI50 [21]: 2.83 µM
- TGI [21]: 11 µM
- GI50 [22]: 11.8 µM
- TGI [22]: 25.3 µM
- GI50 [23]: 2.43 µM
- TGI [23]: 9.68 µM
- GI50 [24]: 2.47 µM
- TGI [24]: 6.39 µM
- GI50 [25]: 14 µM
- TGI [25]: 27.3 µM
- GI50 [26]: 4.33 µM
- TGI [26]: 17.8 µM
- GI50 [27]: 17.8 µM
- TGI [27]: 42.4 µM
- GI50 [28]: 19.9 µM
- TGI [28]: 37.5 µM
- GI50 [29]: 2.8 µM
- TGI [29]: 7.16 µM
- GI50 [30]: 4.97 µM
- TGI [30]: 17.7 µM
- GI50 [31]: 2.59 µM
- TGI [31]: 6.47 µM
- GI50 [32]: 2.03 µM
- TGI [32]: 4.92 µM
- GI50 [33]: 15.5 µM
- TGI [33]: 33.1 µM
- GI50 [34]: 4.86 µM
- TGI [34]: 17.2 µM
- GI50 [35]: 1.5 µM
- TGI [35]: 3.34 µM
- GI50 [36]: 1.74 µM
- TGI [36]: 3.42 µM
- GI50 [37]: 5.66 µM
- TGI [37]: 20.7 µM
- GI50 [38]: 4.11 µM
- TGI [38]: 16.8 µM
- GI50 [39]: 4.92 µM
- TGI [39]: 27 µM
- GI50 [40]: 12.5 µM
- TGI [40]: 25 µM
- GI50 [41]: 18.2 µM
- TGI [41]: 33.7 µM
- GI50 [42]: 2.08 µM
- TGI [42]: 5.79 µM
- GI50 [43]: 5.68 µM
- TGI [43]: 21.8 µM
- GI50 [44]: 12.5 µM
- TGI [44]: 25.3 µM
- GI50 [45]: 14.6 µM
- TGI [45]: 29.6 µM
- GI50 [46]: 16.9 µM
- TGI [46]: 36 µM
- GI50 [47]: 2.14 µM
- TGI [47]: 4.62 µM
- GI50 [48]: 17 µM
- TGI [48]: 32.4 µM
- GI50 [49]: 11.9 µM
- TGI [49]: 25.3 µM
- GI50 [50]: 2.34 µM
- TGI [50]: 4.92 µM
- GI50 [51]: 2.34 µM
- TGI [51]: 11 µM
- GI50 [52]: 21 µM
- TGI [52]: 37.8 µM

SMILES: COc1cc2c(/C=C3/C(=O)Nc4ccc(Cl)cc43)c(Cl)[nH]c2cc1C
- TGI [1]: 11.6 µM
- TGI [2]: 5.13 µM
- TGI [3]: 13.7 µM
- TGI [4]: 13.3 µM
- TGI [5]: 16.2 µM
- TGI [6]: 7.01 µM
- TGI [7]: 4.38 µM
- TGI [8]: 1.08 µM
- TGI [53]: 8.48 µM
- TGI [9]: 2.87 µM
- TGI [10]: 4.62 µM
- TGI [54]: 10.4 µM
- TGI [11]: 19 µM
- TGI [12]: 10.6 µM
- TGI [13]: 4.62 µM
- TGI [55]: 6.3 µM
- TGI [14]: 13.9 µM
- TGI [15]: 10.5 µM
- TGI [16]: 20.5 µM
- TGI [17]: 10.7 µM
- TGI [18]: 29.8 µM
- TGI [56]: 7.13 µM
- TGI [19]: 19.7 µM
- TGI [20]: 3.14 µM
- TGI [21]: 4.7 µM
- TGI [22]: 24.2 µM
- TGI [23]: 34.9 µM
- TGI [24]: 0.926 µM
- TGI [25]: 2.67 µM
- TGI [26]: 11.4 µM
- TGI [27]: 6.44 µM
- TGI [28]: 17.1 µM
- TGI [29]: 10.8 µM
- TGI [30]: 14.8 µM
- TGI [31]: 13.6 µM
- TGI [32]: 26.9 µM
- TGI [33]: 22.9 µM
- TGI [34]: 19.7 µM
- TGI [35]: 6.25 µM
- TGI [36]: 15.8 µM
- TGI [37]: 0.57 µM
- TGI [38]: 0.814 µM
- TGI [39]: 5.43 µM
- TGI [40]: 5.71 µM
- TGI [41]: 0.638 µM
- TGI [42]: 0.933 µM
- TGI [43]: 7.54 µM
- TGI [44]: 14.5 µM
- TGI [45]: 43.7 µM
- TGI [46]: 13.7 µM
- TGI [47]: 2.44 µM
- TGI [48]: 10 µM
- TGI [49]: 15.4 µM
- TGI [50]: 20.9 µM
- TGI [51]: 22.4 µM
- TGI [57]: 12.7 µM
